Experimental data published in publication PMC6540222, “Small Molecule Inhibitors of KDM5 Histone Demethylases Increase the Radiosensitivity of Breast Cancer Cells Overexpressing JARID1B” (Molecules, 2019).

Legend:
[1] = system: HeLa cells; set-up: method as in PMID 24489688; settings: without affecting methylation of other lysins; cited from earlier work
[2] = target: KDM5D (Homo sapiens, UniProt Q9BY66); experiment: Surface Plasmon Resonance (SPR), immobilized KDM5D; assay type: binding; settings: KDM5D immobilized on COOH5 sensorchip, buffer HSP-1%D, analyte 6.25-100 μM
Protocol: Surface Plasmon Resonance (SPR) experiments were carried out using a SensiQ Pioneer system (ICx Nomadics, Stillwater, OK, USA). Immobilization of ligand (KDM5D) was carried out essentially as in Ilari et al.. The sensor chip (COOH5) was activated chemically by a 100 µL injection of a 1:1 mixture of N-ethyl-N′-(3-([…])carbodiimide (200 mM) and N-hydroxysuccinimide (50 mM) at a flow rate of 5 µL/min. KDM5D was immobilized on activated sensor chips via amine coupling. The immobilization was carried out in 20 mM sodium acetate at pH 4.5; the remaining unreacted groups were blocked by injecting 1 M ethanolamine hydrochloride (100 µL). The amount of immobilized KDM5D was detected by mass concentration-dependent changes in the refractive index on the sensor chip surface and corresponded to about 11,000 resonance units (RU); an empty flow cell was used as a reference. Analytes, i.e., inhibitors RS3152, RS3183, RS3195, RS4995 and RS5033 were dissolved in DMSO at a concentration of 10 mM and diluted in HSP buffer (10 mM Hepes pH 7.4, 150 mM NaCl + 0.005% surfactant P20) to yield 100 μM inhibitor concentration in HSP + 1% DMSO (HSP-1%D). The analytes were automatically diluted in HSP-1%D and injected on the sensorchip for 120 s at a constant flow (30 µL/min); analyte concentrations were: (1) 6.25 μM; (2) 12.5 μM; (3) 25 μM; (4) 50 μM; (5) 100 μM. The increase in RU relative to baseline indicates complex formation; the plateau region represents the steady-state phase of the interaction, whereas the decrease in RU after 120 s represents dissociation of analytes from immobilized KDM5 after injection of buffer HSP-1%D. The sensorgrams were analysed using the SensiQ Qdat 4.0 program and using simple Scatchard plots.

[3] = system: MCF-7 cells; experiment: CCK-8 viability assay after X-ray irradiation; assay type: cell-based, human; settings: MCF-7 irradiated with 3 Gy, all concentrations tested, compared to DMSO control, CCK-8 48 h post irradiation
Protocol: The cytoxicity assay was performed with Cell Counting Kit-8 (#96992, Sigma-Aldrich) according to the manufacturer’s instructions. 100 µL of MCF-7 T47D or MDA-MB231 cell suspension (5000 cells/well) was dispensed in a 96-well plate. After 24 h, inhibitor or DMSO was added in growth medium and then cells were irradiated. 48 h post irradiation, 10 μL of CCK-8 solution was added to each well of the plate and incubated again for 1 h. Incubate the plate for 1–4 h in the incubator. The absorbance at 450 nm was read using a VICTOR2 1420 reader (Perkin Elmer Wallac, Waltham, MA, USA). The absorbance at 450 nm of each sample, which is proportional to the number of viable cells, was first normalized on the same value of absorbance of blank (a well with only growth medium). The absorbance of each dose of radiation (sham, 0.3, 1 and 3 Gy) was normalized to the corresponding DMSO control and then, for each concentration of inhibitors, these values were normalized to the corresponding sham control.

[4] = system: MCF-7 cells; experiment: Clonogenic assay after X-ray irradiation; assay type: cell-based, human; settings: for proliferative capacity (clonogenic survival): MCF-7, 10 μM, compared to DMSO control
Protocol: One hour after treatment with inhibitors, cells were exposed to X-ray using a MLG 300/6-D apparatus (Gilardoni, Lecco, Italy) set to […] and 6 mA, in order to produce an equivalent absorbed dose of 1cGy/s. Afterwards, cells were harvested, counted and then diluted in inhibitor containing growth medium. Appropriate cell numbers were seeded in quadruplicate according to the doubling time of the cell line and to radiation dose. 24 h after this seeding, the medium with inhibitor was replaced with fresh DMEM and cells were then incubated for 14 days (enough time to allow at least six cell divisions). After this period of growth, cells were washed twice with PBS and then fixed and stained with a suitable volume of a solution made of 0.3% Methylene Blue and 80% Ethanol for 30 min at room temperature. After washing cells twice with ddH2O, plates were pictured with ChemiDoc XRS+ Imaging System (Bio-Rad) in colorimetric mode. Colonies were detected using Fiji software, with the “Find maxima” function setting a background noise threshold of 3000. Radiation-dose response curveS to X-ray for DMSO and inhibitor samples were calculated using surviving fraction. Plating efficiency and surviving fraction were calculated as follows:Plating efficiency = number of colonies counted/number of cells plated Surviving fraction = Plating efficiency/plating efficiency of shame sample

[5] = system: γ-H2AX levels in MCF-7 cells; experiment: Western blotting of H2AX phosphorylation after irradiation; assay type: cell-based, human; settings: RS5033 10 μM, KDOAM-25 0.03 μM
Protocol: Proteins were resolved on a 12% (histones) or 5% (JARID1B) denaturing polyacrylamide gel, using either 4 μg of histone preparation or 40 μg of cell lysate. After electrophoresis, proteins were transferred on a nitrocellulose membrane (Protran™ […] NC, # 10600002, GE Healthcare (Amersham™), Chicago, IL, USA) via wet transfer method using a Bio-Rad tank. Transfer efficiency was verified via ponceau staining (#P7767, Sigma-Aldrich). Filters were blocked with either milk (#70166, Sigma-Aldrich) or bovine serum albumin (#A3069, Sigma-Aldrich) and then hybridized over night at 4 °C in gentle rotation with the following antibodies: rabbit anti-H3K4me3 (1:1000, #39915, Active Motif, RRID:AB_2687512); rabbit-anti-H3K27me3 (1:1000, #9733, Cell Signaling Technology, RRID:AB_2616029); rabbit-anti- H3K9pan-methylated (1:1000, #4473, RRID:AB_10544693); rabbit-anti-H3 ([…], Cat#1791, ABCAM, RRID:AB_302613); rabbit anti-H2AX (1:1000, Cat#7631, Cell Signaling Technology, RRID:AB_10860771), rabbit anti-Phospho-H2AX (1:1000, Cat#9718, Cell Signaling Technology, RRID:AB_2118009), rabbit anti-JARID1B (1:50, Cell Signaling Technology, Cat#3273 RRID: AB_1264191). Goat-anti-Rabbit Horseradish Peroxidase conjugated (1:10,000, #31460, Thermo Fisher Scientific, Waltham, MA, USA RRID:AB_228341) was used as secondary antibody for 1 hour hybridization at room temperature. Blots were scanned and analyzed with a ChemiDoc XRS+ Imaging System (Bio-Rad). The volumes of each band of protein was acquired using Bio-Rad’s ImageLab software by means of volume tools using global quantification. The signal for each protein was normalized to the housekeeping protein and ratios with average control values were determined. For histones as loading control was used either total histone H3 detected by a specific antibody or histone H1 levels by staining the upper part of the gel properly cut before protein transfer on nitrocellulose membrane.

Chain of KDM5D (Q9BY66 whole entry): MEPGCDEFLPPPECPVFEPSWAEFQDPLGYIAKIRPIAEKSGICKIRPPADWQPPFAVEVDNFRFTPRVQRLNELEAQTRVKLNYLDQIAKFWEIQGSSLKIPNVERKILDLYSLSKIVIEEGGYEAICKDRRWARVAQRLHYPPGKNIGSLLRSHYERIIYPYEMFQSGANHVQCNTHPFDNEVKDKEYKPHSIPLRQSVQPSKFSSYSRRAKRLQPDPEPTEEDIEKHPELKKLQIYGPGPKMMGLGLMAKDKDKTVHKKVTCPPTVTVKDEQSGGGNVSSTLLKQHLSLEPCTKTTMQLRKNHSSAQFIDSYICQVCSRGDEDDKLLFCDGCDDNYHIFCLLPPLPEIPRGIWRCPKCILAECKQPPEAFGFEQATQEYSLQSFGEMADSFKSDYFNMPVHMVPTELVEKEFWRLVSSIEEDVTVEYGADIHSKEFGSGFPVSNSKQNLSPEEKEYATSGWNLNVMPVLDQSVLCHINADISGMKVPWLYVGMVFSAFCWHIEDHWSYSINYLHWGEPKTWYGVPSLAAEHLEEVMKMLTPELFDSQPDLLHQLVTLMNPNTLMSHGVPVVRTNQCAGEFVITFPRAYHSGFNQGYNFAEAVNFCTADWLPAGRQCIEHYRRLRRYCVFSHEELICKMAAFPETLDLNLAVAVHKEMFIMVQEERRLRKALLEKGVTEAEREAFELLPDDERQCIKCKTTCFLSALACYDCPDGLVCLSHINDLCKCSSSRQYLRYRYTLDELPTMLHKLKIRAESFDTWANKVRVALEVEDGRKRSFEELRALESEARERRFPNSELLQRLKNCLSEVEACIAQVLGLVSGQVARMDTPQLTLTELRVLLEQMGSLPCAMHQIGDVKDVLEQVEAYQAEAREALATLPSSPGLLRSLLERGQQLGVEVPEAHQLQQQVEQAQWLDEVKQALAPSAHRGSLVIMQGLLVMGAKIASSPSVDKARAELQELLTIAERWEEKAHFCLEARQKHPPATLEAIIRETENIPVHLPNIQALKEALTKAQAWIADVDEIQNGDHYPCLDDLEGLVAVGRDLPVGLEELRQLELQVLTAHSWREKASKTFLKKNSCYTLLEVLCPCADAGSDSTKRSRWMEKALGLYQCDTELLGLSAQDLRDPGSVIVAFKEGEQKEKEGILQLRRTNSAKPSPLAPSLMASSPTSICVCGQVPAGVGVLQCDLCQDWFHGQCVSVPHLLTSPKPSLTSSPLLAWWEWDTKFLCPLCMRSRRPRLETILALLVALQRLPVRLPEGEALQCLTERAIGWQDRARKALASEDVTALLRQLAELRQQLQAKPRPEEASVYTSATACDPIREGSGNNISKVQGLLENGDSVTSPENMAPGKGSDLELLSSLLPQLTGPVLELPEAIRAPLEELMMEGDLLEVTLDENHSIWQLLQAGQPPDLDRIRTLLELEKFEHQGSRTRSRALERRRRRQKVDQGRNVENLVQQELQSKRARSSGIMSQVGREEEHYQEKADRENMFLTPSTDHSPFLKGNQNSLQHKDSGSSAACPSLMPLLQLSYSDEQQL

Kd [2] [µM] | number of clones in sham-irradiated cells ([4]; MCF-7, sham-irradiated (not shown)) | Structure (SMILES) | H3K4 demethylation in HeLa cells [1] | reduction of viable cells [3] | proliferative capacity (clonogenic survival) ([4]; irradiated) | ɤH2AX increase normalized to the amount of H2AX ([5]; MCF-7, 6 Gy, 4-36 h) | amount of ɤH2AX ([5]; MCF-7, sham-irradiated and irradiated (6 Gy) cells) | proliferative capacity (clonogenic survival) ([4]; 3 Gy irradiation dose)
38 ± 2 | lower number of clones | CCOC(=O)c1cccn1C(=O)c1cccc(NS(=O)(=O)c2ccc(OC)cc2)c1 [RS3195] | decrease H3K4 demethylation | more limited effect | no significant effect | – | – | –
32 ± 2 | – | CCOC(=O)c1ccccc1C(=O)c1cccc(NS(=O)(=O)c2ccc(OC)cc2)c1 [RS5033] | – | 20–35% | – | statistically significant at 4 h and 24 h | increases | slight but significant decrease
